Consider 2 molecules from PMC5943518, “The protein kinase CK2 catalytic domain from Plasmodium falciparum: crystal structure, tyrosine kinase activity and inhibition” (Scientific Reports, 2018).

pIC50, pKd: −log10 of the molar value.

Assay [1] addresses T1, PfCK2 (PfCK2α, protein kinase CK2 catalytic subunit) (Plasmodium falciparum, UniProt Q8IIR9).
T1 construct: gene PF3D7_1108400; Ile12 to Ser335 of PfCK2α
Briefly: radiometric peptide kinase assay with γ[…]-ATP ([…] ATP). The class given is biochemical.

Assay [2] concerns the target T2, PfCK2α (protein kinase CK2 catalytic α subunit), PfCK2αD179S (Plasmodium falciparum, UniProt Q8IIR9, D179S).
T2 construct: gene PF3D7_1108400; Ile12 to Ser335 (catalytic domain), hexa-histidine tag at C-terminus
T2 sequence (Q8IIR9 12-335 D179S): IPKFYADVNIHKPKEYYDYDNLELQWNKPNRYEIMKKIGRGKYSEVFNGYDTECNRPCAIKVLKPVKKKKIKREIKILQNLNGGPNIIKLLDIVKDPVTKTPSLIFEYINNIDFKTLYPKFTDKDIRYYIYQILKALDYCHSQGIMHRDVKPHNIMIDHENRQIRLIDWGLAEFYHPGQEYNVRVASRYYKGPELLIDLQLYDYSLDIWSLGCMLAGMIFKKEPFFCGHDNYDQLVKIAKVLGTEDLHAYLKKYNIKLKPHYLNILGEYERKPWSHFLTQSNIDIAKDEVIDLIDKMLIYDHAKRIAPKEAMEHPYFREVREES
Briefly: co-crystal structure at […] Å without Mg2+; ITC (KD […] without Mg2+, […] with […] Mg2+). It is filed as binding.

Regarding `O=C(O)c1ccc2c(c1)nc(Nc1cccc(Cl)c1)c1ccncc12` [CX4945], in assay [1], the negative-log IC50 (pIC50) is 7.88.

In assay [2], `Nc1ncnc2c1ncn2[C@@H]1O[C@H](COP(=O)(O)OP(=O)(O)OP(=O)(O)O)[C@@H](O)[C@H]1O` [ATP] showed a pKd of 4.65.

For orientation: pIC50 means the negative decadic logarithm of the IC50, by convention in mol/L. Lower therefore signals a large IC50. Usually pKd stands for −log10 of the Kd, conventionally taken in molar units. Read a high pKd as a small Kd.
